Columns and labels:
Assay type in all cases: in vivo
Cyperus difformis = experiment: Test Example 3: herbicidal effect by application to foliage (Wagner pot, water depth 0.1-0.5 cm); conditions: Nineteenth Table; application to foliage; application herbicide amount 320 g/ha
Method in brief: (§1)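 A small sprayer delivered the diluted emulsion uniformly to foliage at the chosen rate in g/ha, 14 days after sowing in Wagner pots held at 25–30 °C. Outcome: 0–5 herbicidal-ratio score read three weeks post-treatment.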

Leptochloa chinensis = experiment: as above; conditions: Nineteenth Table; application to foliage; application herbicide amount 320 g/ha
Method in brief: as §1

[1] = tested on: Echinochloa crus-galli var. crus-galli; experiment: as above; conditions: Nineteenth Table; application to foliage; application herbicide amount 320 g/ha
Method in brief: as §1

[2] = tested on: Beta vulgaris ssp. vulgaris; experiment: Test Example 4: effect on crop by application to foliage (diluvial soil, plastic box); conditions: 320 g/ha; for effect on crop, f (Beta vulgaris ssp. vulgaris): application to foliage
Method in brief: (§2)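 Greenhouse plants (25° C. to 30° C., 14 d, diluvial soil) receive a foliar spray of water-diluted emulsifiable formulation at defined g/ha. Grading after 3 weeks uses a six-step herbicidal-ratio scale, with 4 covering 70% to <90% and 1 covering 5% to <20%.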

[3] = tested on: directly sowed Oryza sativa; experiment: as above; conditions: 320 g/ha; for effect on crop, d (directly sowed Oryza sativa): application to foliage
Method in brief: as §2

Triticum aestivum = experiment: as above; conditions: 320 g/ha; for effect on crop, e (Triticum aestivum): application to foliage
Method in brief: as §2

Glycine max = experiment: as above; conditions: 320 g/ha; for effect on crop, c (Glycine max): application to foliage
Method in brief: as §2

Zea mays = experiment: as above; conditions: 320 g/ha
Method in brief: as §2

Brassica campestris L. = experiment: as above; conditions: 320 g/ha; for effect on crop, g (Brassica campestris L.): application to foliage
Method in brief: as §2

Amaranthus retroflexus = experiment: Test Example 4: herbicidal effect by application to foliage (diluvial soil, plastic box); conditions: 320 g/ha; for herbicidal effect, N (Amaranthus retroflexus): application to foliage
Method in brief: as §2

Alopecurus myosuroides = experiment: as above; conditions: 320 g/ha; for herbicidal effect, J (Alopecurus myosuroides): application to foliage
Method in brief: as §2

Digitaria ciliaris = experiment: as above; conditions: 320 g/ha; for herbicidal effect, F (Digitaria ciliaris): application to foliage
Method in brief: as §2

[4] = tested on: Echinochloa crus-galli var. crus-galli; experiment: as above; conditions: 320 g/ha; for herbicidal effect, H (Echinochloa crus-galli var. crus-galli): application to foliage
Method in brief: as §2

Abutilon theophrasti = experiment: as above; conditions: 320 g/ha; for herbicidal effect, M (Abutilon theophrasti): application to foliage
Method in brief: as §2

Lolium multiflorum Lam. = experiment: as above; conditions: 320 g/ha; for herbicidal effect, K (Lolium multiflorum Lam.): application to foliage
Method in brief: as §2

Avena fatua = experiment: as above; conditions: 320 g/ha; for herbicidal effect, I (Avena fatua): application to foliage
Method in brief: as §2

Chenopodium album = experiment: as above; conditions: 320 g/ha; for herbicidal effect, O (Chenopodium album): application to foliage
Method in brief: as §2

Stellaria media = experiment: as above; conditions: 320 g/ha; for herbicidal effect, P (Stellaria media): application to foliage
Method in brief: as §2

Apera spica-venti. = experiment: as above; conditions: 320 g/ha; for herbicidal effect, L (Apera spica-venti.): application to foliage
Method in brief: as §2

Setaria viridis = experiment: as above; conditions: 320 g/ha; for herbicidal effect, G (Setaria viridis): application to foliage
Method in brief: as §2

Galium spurium = experiment: as above; conditions: application to foliage, 320 g/ha
Method in brief: as §2

Veronica persica = experiment: as above; conditions: application to foliage, 320 g/ha
Method in brief: as §2

CSC(C)c1nnc2c(C(=O)Nc3nnnn3C)ccc(C(F)(F)F)n12 (stereo not shown) [2-052]
E (herbicidal effect grade) (Cyperus difformis): 5 (Herbicidal ratio of 90% or more (almost completely withered))
D (herbicidal effect grade) (Leptochloa chinensis): 5 (Herbicidal ratio of 90% or more (almost completely withered))
H (herbicidal effect grade) [1]: 5 (Herbicidal ratio of 90% or more (almost completely withered))
f (Beta vulgaris ssp. vulgaris) effect on crop grade ([2]; foliage application): 5 (Herbicidal ratio of 90% or more (almost completely withered))
d (directly sowed Oryza sativa) effect on crop grade ([3]; foliage application): 5 (Herbicidal ratio of 90% or more (almost completely withered))
e (Triticum aestivum) effect on crop grade (Triticum aestivum; foliage application): 5 (Herbicidal ratio of 90% or more (almost completely withered))
c (Glycine max) effect on crop grade (Glycine max; foliage application): 4 (Herbicidal ratio of 70% or more and less than 90%)
b (Zea mays) effect on crop grade (Zea mays; foliage application): 5 (Herbicidal ratio of 90% or more (almost completely withered))
g (Brassica campestris L.) effect on crop grade (Brassica campestris L.; foliage application): 5 (Herbicidal ratio of 90% or more (almost completely withered))
N (Amaranthus retroflexus) herbicidal effect grade (Amaranthus retroflexus; foliage application): 5 (Herbicidal ratio of 90% or more (almost completely withered))
J (Alopecurus myosuroides) herbicidal effect grade (Alopecurus myosuroides; foliage application): 5 (Herbicidal ratio of 90% or more (almost completely withered))
F (Digitaria ciliaris) herbicidal effect grade (Digitaria ciliaris; foliage application): 5 (Herbicidal ratio of 90% or more (almost completely withered))
H (Echinochloa crus-galli var. crus-galli) herbicidal effect grade ([4]; foliage application): 5 (Herbicidal ratio of 90% or more (almost completely withered))
M (Abutilon theophrasti) herbicidal effect grade (Abutilon theophrasti; foliage application): 5 (Herbicidal ratio of 90% or more (almost completely withered))
K (Lolium multiflorum Lam.) herbicidal effect grade (Lolium multiflorum Lam.; foliage application): 5 (Herbicidal ratio of 90% or more (almost completely withered))
I (Avena fatua) herbicidal effect grade (Avena fatua; foliage application): 5 (Herbicidal ratio of 90% or more (almost completely withered))
O (Chenopodium album) herbicidal effect grade (Chenopodium album; foliage application): 5 (Herbicidal ratio of 90% or more (almost completely withered))
P (Stellaria media) herbicidal effect grade (Stellaria media; foliage application): 5 (Herbicidal ratio of 90% or more (almost completely withered))
L (Apera spica-venti.) herbicidal effect grade (Apera spica-venti.; foliage application): 5 (Herbicidal ratio of 90% or more (almost completely withered))
G (Setaria viridis) herbicidal effect grade (Setaria viridis; foliage application): 5 (Herbicidal ratio of 90% or more (almost completely withered))

Cn1nnnc1NC(=O)c1ccc(C(F)(F)F)n2c(SCC(F)(F)F)nnc12 [2-087]
E (herbicidal effect grade) (Cyperus difformis): 5 (Herbicidal ratio of 90% or more (almost completely withered))
D (herbicidal effect grade) (Leptochloa chinensis): 5 (Herbicidal ratio of 90% or more (almost completely withered))
H (herbicidal effect grade) [1]: 5 (Herbicidal ratio of 90% or more (almost completely withered))
effect on crop, f (Beta vulgaris ssp. vulgaris) [2]: 5 (Herbicidal ratio of 90% or more (almost completely withered))
effect on crop, d (directly sowed Oryza sativa) [3]: 3 (Herbicidal ratio of 40% or more and less than 70%)
effect on crop, e (Triticum aestivum) (Triticum aestivum): 2 (Herbicidal ratio of 20% or more and less than 40%)
effect on crop, c (Glycine max) (Glycine max): 0 (Herbicidal ratio of 5% or less (almost no effect))
effect on crop, g (Brassica campestris L.) (Brassica campestris L.): 3 (Herbicidal ratio of 40% or more and less than 70%)
herbicidal effect, N (Amaranthus retroflexus) (Amaranthus retroflexus): 4 (Herbicidal ratio of 70% or more and less than 90%)
herbicidal effect, J (Alopecurus myosuroides) (Alopecurus myosuroides): 3 (Herbicidal ratio of 40% or more and less than 70%)
herbicidal effect, F (Digitaria ciliaris) (Digitaria ciliaris): 5 (Herbicidal ratio of 90% or more (almost completely withered))
herbicidal effect, Q (Galium spurium) (Galium spurium): 3 (Herbicidal ratio of 40% or more and less than 70%)
herbicidal effect, H (Echinochloa crus-galli var. crus-galli) [4]: 5 (Herbicidal ratio of 90% or more (almost completely withered))
herbicidal effect, M (Abutilon theophrasti) (Abutilon theophrasti): 5 (Herbicidal ratio of 90% or more (almost completely withered))
herbicidal effect, K (Lolium multiflorum Lam.) (Lolium multiflorum Lam.): 3 (Herbicidal ratio of 40% or more and less than 70%)
herbicidal effect, I (Avena fatua) (Avena fatua): 4 (Herbicidal ratio of 70% or more and less than 90%)
herbicidal effect, O (Chenopodium album) (Chenopodium album): 5 (Herbicidal ratio of 90% or more (almost completely withered))
herbicidal effect, P (Stellaria media) (Stellaria media): 5 (Herbicidal ratio of 90% or more (almost completely withered))
herbicidal effect, L (Apera spica-venti.) (Apera spica-venti.): 4 (Herbicidal ratio of 70% or more and less than 90%)
herbicidal effect, G (Setaria viridis) (Setaria viridis): 4 (Herbicidal ratio of 70% or more and less than 90%)

Cc1nnc(NC(=O)c2ccc(C(F)(F)F)n3nc(C(C)C)nc23)o1 [7-001]
D (herbicidal effect grade) (Leptochloa chinensis): 2 (Herbicidal ratio of 20% or more and less than 40%)
H (herbicidal effect grade) [1]: 1 (Herbicidal ratio of 5% or more and less than 20%)
effect on crop, f (Beta vulgaris ssp. vulgaris) [2]: 0 (Herbicidal ratio of 5% or less (almost no effect))
effect on crop, d (directly sowed Oryza sativa) [3]: 0 (Herbicidal ratio of 5% or less (almost no effect))
effect on crop, e (Triticum aestivum) (Triticum aestivum): 0 (Herbicidal ratio of 5% or less (almost no effect))
effect on crop, c (Glycine max) (Glycine max): 0 (Herbicidal ratio of 5% or less (almost no effect))
effect on crop, b (Zea mays) (Zea mays; application to foliage): 0 (Herbicidal ratio of 5% or less (almost no effect))
effect on crop, g (Brassica campestris L.) (Brassica campestris L.): 0 (Herbicidal ratio of 5% or less (almost no effect))
herbicidal effect, N (Amaranthus retroflexus) (Amaranthus retroflexus): 0 (Herbicidal ratio of 5% or less (almost no effect))
herbicidal effect, J (Alopecurus myosuroides) (Alopecurus myosuroides): 0 (Herbicidal ratio of 5% or less (almost no effect))
herbicidal effect, F (Digitaria ciliaris) (Digitaria ciliaris): 0 (Herbicidal ratio of 5% or less (almost no effect))
herbicidal effect, Q (Galium spurium) (Galium spurium): 0 (Herbicidal ratio of 5% or less (almost no effect))
herbicidal effect, H (Echinochloa crus-galli var. crus-galli) [4]: 1 (Herbicidal ratio of 5% or more and less than 20%)
herbicidal effect, M (Abutilon theophrasti) (Abutilon theophrasti): 1 (Herbicidal ratio of 5% or more and less than 20%)
herbicidal effect, K (Lolium multiflorum Lam.) (Lolium multiflorum Lam.): 0 (Herbicidal ratio of 5% or less (almost no effect))
herbicidal effect, I (Avena fatua) (Avena fatua): 0 (Herbicidal ratio of 5% or less (almost no effect))
herbicidal effect, R (Veronica persica) (Veronica persica): 0 (Herbicidal ratio of 5% or less (almost no effect))
herbicidal effect, O (Chenopodium album) (Chenopodium album): 2 (Herbicidal ratio of 20% or more and less than 40%)
herbicidal effect, P (Stellaria media) (Stellaria media): 1 (Herbicidal ratio of 5% or more and less than 20%)
herbicidal effect, L (Apera spica-venti.) (Apera spica-venti.): 0 (Herbicidal ratio of 5% or less (almost no effect))
herbicidal effect, G (Setaria viridis) (Setaria viridis): 0 (Herbicidal ratio of 5% or less (almost no effect))

Source: patent US9708314B2, “Heterocyclic amide compound” (NISSAN CHEMICAL INDUSTRIES, LTD., priority 2013, dated 2017)
